What was measured:
[1] = Reactivity towards physiological thiols (ESI-MS monitoring of reaction with GSH); type: physicochemical; conditions: GSH […]10^−5M or 5×10^−5M, about 45 min
Description: FIGS. 6A-C show stability tests: (A) UV/vis absorption of 1 in PBS (containing 5% acetonitrile, v/v) at different time point; (B) Linear response of ESI-MS intensity of 1 versus concentration; (C) Kinetics analysis of reaction of 1 with GSH, auranofin was used as a reference compound. Unreacted compound percentage was calculated by combined MS intensity of each 10 scans at different time point then divided by pre-determined MS intensity of initial concentration. It was believed that high reactivity of the gold(I) anticancer drugs towards physiological thiols may fail the drugs targeting to the solid tumor tissue thus hamper the application for in vivo cancer treatment. As a result, high resolution ESI-MS was applied to monitor the reaction of 1 with thiol-containing GSH.

breast carcinoma (MCF-7) = assay: MTT cytotoxicity assay, MCF-7; type: cell-based, human; conditions: 72 h of incubation
[2] = system: hepatocellular carcinoma (HepG2); assay: MTT cytotoxicity assay, HepG2; type: cell-based, human; conditions: 72 h of incubation
[3] = system: human nasopharyngeal carcinoma (SUNE1); assay: MTT cytotoxicity assay, SUNE1; type: cell-based; conditions: 72 h of incubation
[4] = system: human nasopharyngeal carcinoma (HONE1); assay: MTT cytotoxicity assay, HONE1; type: cell-based; conditions: 72 h of incubation
[5] = system: cervical epithelioid carcinoma (HeLa); assay: MTT cytotoxicity assay, HeLa; type: cell-based, human; conditions: 72 h of incubation
lung carcinoma (HCC827) = assay: MTT cytotoxicity assay, HCC827; type: cell-based, human; conditions: 72 h of incubation
H1975 = assay: MTT cytotoxicity assay, H1975; type: cell-based, human; conditions: 72 h of incubation

| Structure (SMILES) | reaction towards GSH (reference compound) [1] | IC50 (breast carcinoma (MCF-7)) | IC50 [2] | IC50 [3] | IC50 [4] | IC50 [5] | IC50 (lung carcinoma (HCC827)) | IC50 (H1975) |
| --- | --- | --- | --- | --- | --- | --- | --- | --- |
| CC(=O)OC[C@H]1O[C@@H]([S-])[C@H](OC(C)=O)[C@@H](OC(C)=O)[C@@H]1OC(C)=O.CCP(CC)CC.[Au+] [auranofin, reference compound] | fast reaction towards GSH | – | – | – | – | – | – | – |
| CCN(CC)C1=[S+][Au-][P+](C2CCCCC2)(C2CCCCC2)C[P+](C2CCCCC2)(C2CCCCC2)[Au-][S]1.O=S(=O)(O)C(F)(F)F [Compound 3, [Au2-dcpm-dedt] (OTf)] | – | 410 ± 200 nM | 540 ± 70 nM | 670 ± 280 nM | 410 ± 70 nM | < 390 nM | – | – |
| CCN(CC)C1=[S+][Au-][P+](c2ccccc2)(c2ccccc2)C[P+](c2ccccc2)(c2ccccc2)[Au-][S]1.O=S(=O)(O)C(F)(F)F [Compound 4, [Au2-dppm-dedt] (OTf)] | – | 500 ± 60 nM | 950 ± 580 nM | 1620 ± 440 nM | 590 ± 40 nM | 630 nM | 480 ± 60 nM | < 190 nM |

From patent US9238659B2, “Method of using binuclear gold (I) compounds for cancer treatment” (University of Hong Kong, priority 2012, dated 2016)
